Positions of bridges follow the written chain, without caps; N, C: chain ends. Non-standard residues stand in square brackets, D forms with d. Residues, ends and D or L forms follow the SMILES beside them. *: point of attachment. Bip = N[C@@H](Cc1ccc(-c2ccccc2)cc1)C(=O)O; NMeF = CN[C@@H](Cc1ccccc1)C(=O)O; NMeI = CC[C@H](C)[C@H](NC)C(=O)O; NMeL = CN[C@@H](CC(C)C)C(=O)O; NMeV = CN[C@H](C(=O)O)C(C)C; NMeA = CN[C@@H](C)C(=O)O; Piperidide = C1CCN(*)CC1; Sar = CNCC(=O)O; tBu = CC(C)(C)*
How the values were obtained:
[1] = Stability of aminoacylated pdCpA in buffers and on storage (LC-MS); type: physicochemical; conditions: for % by LC-MS during StBu deprotection: 250 μM Compound 2n-A, 50 mM Tris-HCl pH 7, 10 mM DTT
Experimental: The side chain StBu of pdCpA-Cys was deprotected using the precursor Compound 2n-A, and the following experiment was carried out to examine stability of the deprotected Compound 2e-A. The side chain was deprotected at room temperature under the conditions of 250 μM of Compound 2n-A, 50 mM Tris-HCl buffer, pH 7, and 10 mM DTT, and the time course of the deprotection was observed by LC-MS (SQD). The intended Compound 2e-A was not observed, and pdCpA resulting from hydrolysis of pdCpA-Cys was observed. After 5 minutes, Compound 2n-A was 51%, Compound 2e-A was 0%, and pdCpA was 49%. After 2 hours, deprotection was completed and Compound 2n-A was 0%, but Compound 2e-A was 0% and all hydrolized so that pdCpA was 100% (FIG. 13).
Stability of Compound 2n-A with the SH group of Cys protected was evaluated. Storage samples were prepared under five conditions as shown in the following Table 2 were prepared, respectively, and analyzed by LC-MS.
Stability of Compound 2n-B with the SH group of MeCys protected was also evaluated. Storage samples were prepared under four conditions as shown in the following Table 3 were prepared and analyzed by LC-MS.

[2] = Serum stability test in mouse serum; type: in vitro ADME; conditions: both sexes, pH 7.4, two hours, read-out: Serum stability t1/2 (Mouse)
Experimental: (§1) The obtained compound was metabolically reacted at a concentration of 2 uM with mouse serum (male/female mixed, Valley Biomedical, USA) (adjusted to pH 7.4 with 33.5 mM HEPES buffer) for two hours. Deproteinization treatment with acetonitrile was provided over time, the amount of the remaining unchanged compound was analyzed using LC/MS, and the metabolic half-life (t1/2) was calculated. A microsome solution prepared at 0.5 mg protein/mL from mouse hepatic microsome and small intestinal microsome (male, XENOTECH, USA) using 100 mM phosphate buffer (pH 7.4) was metabolically reacted with the compound at a concentration of 1 uM for 30 minutes in the presence or absence of NADPH. Deproteinization treatment with acetonitrile was provided over time, the amount of the remaining unchanged compound was analyzed using LC/MS, and the hepatic-intrinsic clearance (CLh, int) and the small intestinal-intrinsic clearance (CLg, int) were calculated (Table 7). Such peptides were sufficiently slowly metabolized by hydrolysis with peptidases or the like in mouse sera and microsomes, contrary to peptides composed of natural amino acids having low lipophilicity.

[3] = Metabolic stability in mouse hepatic microsome; type: in vitro ADME; conditions: 0.5 mg protein/mL, 1 uM, 30 minutes; for Hepatic Microsome CLh, int (Mouse) In the absence of NADPH: without NADPH; for microsomal CLint at 1 uM: male, mouse, liver microsomes, pH 7.4, with NADPH, read-out: Hepatic Microsome CLh, int (Mouse) In the presence of NADPH
Experimental: as §1
Metabolic stability tests were carried out in the same manner as shown in 2-1.

[4] = PAMPA (parallel artificial membrane permeability assay); type: in vitro ADME; conditions: PAMPA, pH 6.5
Method in brief: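 Artificial membrane was 10% (w/v) egg lecithin plus 0.5% (w/v) cholesterol in dodecane on a PVDF filter. A 10 mM DMSO stock was added at 0.5% (v/v) to donor buffer (50 mM MOPSO, pH 6.5, 5.0% glycocholic acid). After 18 h at 37 °C, LC/MS or LC/UV gave donor and acceptor levels for Pe.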

[5] = Metabolic stability in human hepatic microsome; type: in vitro ADME; conditions: human, microsomes, pH 7.4, CL NADPH(+)
in vivo = conditions: male, C57BL/6J, mouse, 20 mg/kg
[6] = room temperature, after 5 minutes
[7] = room temperature, after 2 hours
[8] = In AcONa buffer, 1 mM, pH 5, room temperature, 1 hour
[9] = In DMSO, 5 mM, pH 4, 0° C., 2.5 days
[10] = In HEPES buffer, 1 mM, pH 7, room temperature, 1 hour
[11] = Stored as solid, room temperature, 16 days
[12] = pdCpA-MeCys(StBu): In AcONa buffer, 1 mM, pH 5, room temperature, 5 hours
[13] = pdCpA-MeCys(StBu): In DMSO, 5 mM, pH 4, 0° C., 1 day
[14] = pdCpA-MeCys(StBu): In HEPES buffer, 1 mM, pH 7, room temperature, 1 hour
[15] = pdCpA-MeCys(StBu): In Tris buffer, 1 mM, pH 7, room temperature, 1 hour

Row | SMILES | half-life at 2 uM [2] | Hepatic Microsome CLh, int (Mouse) In the absence of NADPH [3] | microsomal CLint at 1 uM [3] | Papp at 18 hours, 50 µM [4] | microsomal CLint at 1 uM [5] | AUC (in vivo; iv) | C0 (in vivo; iv) | Vd (in vivo; iv) | clearance (in vivo; iv) | half-life (in vivo; iv) | AUC (in vivo; po) | CL/F (in vivo; po) | Cmax (in vivo; po) | Tmax (in vivo; po) | bioavailability (in vivo; po) | half-life (in vivo; po) | further results
1 | CC(C)(C)SSC[C@H](N)C(=O)O[C@H]1[C@@H](O)[C@H](n2cnc3c(N)ncnc32)O[C@@H]1COP(=O)(O)O[C@H]1C[C@H](n2ccc(N)nc2=O)O[C@@H]1COP(=O)(O)O [Compound 2n-A, (2R)-(2R,3S,4R,5R)-2-((((((2R,3S,5R)-5-(4-amino-2-oxopyrimidin-1(2H)-yl)-2-((phosphonooxy)methyl)tetrahydrofuran-3-yl)oxy)(hydroxy)phosphoryl)oxy)methyl)-5-(6-amino-9H-purin-9-yl)-4-hydroxytetrahydrofuran-3-yl 2-amino-3-(tert-butyldisulfanyl)propanoate] | – | – | – | – | – | – | – | – | – | – | – | – | – | – | – | – | % by LC-MS during StBu deprotection [1, 6]: 51%; % by LC-MS during StBu deprotection [1, 7]: 0%; % remaining by LC-MS [1, 8]: 70%; % remaining by LC-MS [1, 9]: 58%; % remaining by LC-MS [1, 10]: 30%; % remaining by LC-MS [1, 11]: 64%
2 | CC[C@H](C)[C@H]1C(=O)N[C@@H](Cc2ccc(-c3ccccc3)cc2)C(=O)N[C@H](C(=O)N2CCCCC2)CSCC(=O)N(C)[C@@H](CC(C)C)C(=O)N[C@@H]([C@@H](C)O)C(=O)N(C)CC(=O)N(C)[C@@H](CC(C)C)C(=O)N[C@@H](CO)C(=O)N1C [Compound P-104, Ac*-MeLeu-Thr-MeGly-MeLeu-Ser-MeIle-Bip-Cys*-piperidine] ({CH2CO}-[NMeL]T[Sar][NMeL]S[NMeI][Bip]C-Piperidide; thioether N-8) | > 60 h | 6.9 ul/min/mg Protein | 106 µL/min/mg | – | – | – | – | – | – | – | – | – | – | – | – | – | –
3 | CC(C)C[C@H]1C(=O)N[C@H](C(=O)N2CCCCC2)CSCC(=O)N(C)[C@@H](Cc2ccccc2)C(=O)N(C)[C@@H](C)C(=O)N[C@@H](Cc2ccccc2)C(=O)N(C)[C@@H](CC(C)C)C(=O)N[C@@H]([C@@H](C)O)C(=O)N(C)CC(=O)N1C [Compound P-105, Ac*-MePhe-MeAla-Phe-MeLeu-Thr-MeGly-MeLeu-Cys*-piperidine] ({CH2CO}-[NMeF][NMeA]F[NMeL]T[Sar][NMeL]C-Piperidide; thioether N-8) | > 60 h | 5.1 ul/min/mg Protein | 278 µL/min/mg | – | – | – | – | – | – | – | – | – | – | – | – | – | –
4 | CC(C)C[C@H]1C(=O)N[C@@H](COC(C)(C)C)C(=O)N[C@H](C(=O)N2CCCCC2)CSCC(=O)N(C)[C@@H](C)C(=O)N[C@@H](Cc2ccccc2)C(=O)N(C)[C@@H](CC(C)C)C(=O)N[C@@H]([C@@H](C)O)C(=O)N(C)CC(=O)N1C [Compound P-106, Ac*-MeAla-Phe-MeLeu-Thr-MeGly-MeLeu-Ser(tBu)-Cys*-piperidine] ({CH2CO}-[NMeA]F[NMeL]T[Sar][NMeL]S(tBu)C-Piperidide; thioether N-8) | > 60 h | 1.9 ul/min/mg Protein | 151 µL/min/mg | – | – | – | – | – | – | – | – | – | – | – | – | – | –
5 | CC[C@H](C)[C@H]1C(=O)N[C@@H](COC(C)(C)C)C(=O)N(C)[C@@H](Cc2ccccc2)C(=O)N(C)[C@@H](C(C)C)C(=O)N[C@H](C(=O)N2CCCCC2)CC(=O)N(C)[C@@H](C)C(=O)N(C)[C@@H](Cc2ccccc2)C(=O)N[C@@H](CC(C)C)C(=O)N(C)[C@@H](CC(C)C)C(=O)N[C@@H]([C@@H](C)O)C(=O)N(C)CC(=O)N1C [DP-47] ([NMeA][NMeF]L[NMeL]T[Sar][NMeI]S(tBu)[NMeF][NMeV]D-Piperidide; lactam N-11) | – | – | – | 50 ×10⁻⁶ cm/s | 37 µL/min/mg | 202000 ng·h/mL | 107 µg/mL | 0.381 L/kg | 1.66 mL/min/kg | 2.68 h | 38000 ng·h/mL | 8.86 mL/min/kg | 4.49 µg/mL | 2.67 h | 18.8% | 3.88 h | –
6 | CC(C)C[C@H]1C(=O)N2CCC[C@H]2C(=O)N(C)[C@@H](CC(C)C)C(=O)N[C@@H](C)C(=O)N(C)[C@@H](C(C)C)C(=O)N[C@H](C(=O)N2CCCCC2)CC(=O)N(C)[C@@H](C)C(=O)N[C@@H]([C@@H](C)O)C(=O)N(C)CC(=O)N(C)[C@@H](Cc2ccccc2)C(=O)N(C)[C@@H](Cc2ccccc2)C(=O)N1C [DP-67] ([NMeA]T[Sar][NMeF][NMeF][NMeL]P[NMeL]A[NMeV]D-Piperidide; lactam N-11) | – | – | – | 23 ×10⁻⁶ cm/s | 15 µL/min/mg | 70700 ng·h/mL | 102 µg/mL | 0.431 L/kg | 4.74 mL/min/kg | 3.25 h | 10900 ng·h/mL | 37.9 mL/min/kg | 2.31 µg/mL | 3.5 h | 15.5% | 4.36 h | –
7 | CC[C@H](C)[C@H]1C(=O)N[C@@H]([C@@H](C)O)C(=O)N(C)CC(=O)N(C)[C@@H](CC(C)C)C(=O)N[C@H](C(=O)N2CCCCC2)CC(=O)N(C)[C@@H](C)C(=O)N[C@@H](CC(C)C)C(=O)N(C)[C@@H](CC(C)C)C(=O)N(C)[C@@H](Cc2ccccc2)C(=O)N[C@@H](C)C(=O)N(C)[C@@H](Cc2ccccc2)C(=O)N1C [DP-101] ([NMeA]L[NMeL][NMeF]A[NMeF][NMeI]T[Sar][NMeL]D-Piperidide; lactam N-11) | – | – | – | 56 ×10⁻⁶ cm/s | 101 µL/min/mg | 83300 ng·h/mL | 112 µg/mL | 0.455 L/kg | 4.01 mL/min/kg | 1.91 h | 12700 ng·h/mL | 26.2 mL/min/kg | 2.32 µg/mL | 1.83 h | 15.2% | 2.27 h | –
8 | Nc1ccn([C@H]2C[C@H](OP(=O)(O)OC[C@H]3O[C@@H](n4cnc5c(N)ncnc54)[C@H](O)[C@@H]3O)[C@@H](COP(=O)(O)O)O2)c(=O)n1 [pdCpA, ((2R,3S,5R)-5-(4-amino-2-oxopyrimidin-1(2H)-yl)-3-(((((2R,3S,4R,5R)-5-(6-amino-9H-purin-9-yl)-3,4-dihydroxytetrahydrofuran-2-yl)methoxy)(hydroxy)phosphoryl)oxy)tetrahydrofuran-2-yl)methyl dihydrogenphosphate, reference compound] | – | – | – | – | – | – | – | – | – | – | – | – | – | – | – | – | % by LC-MS during StBu deprotection [1, 6]: 49%; % by LC-MS during StBu deprotection [1, 7]: 100%; % remaining by LC-MS [1, 8]: 30%; % remaining by LC-MS [1, 9]: 42%; % remaining by LC-MS [1, 10]: 70%; % remaining by LC-MS [1, 11]: 36%; % remaining by LC-MS [1, 12]: 0%; % remaining by LC-MS [1, 13]: 0%; % remaining by LC-MS [1, 14]: 51%; % remaining by LC-MS [1, 15]: 65%
9 | CN[C@@H](CSSC(C)(C)C)C(=O)O[C@H]1[C@@H](O)[C@H](n2cnc3c(N)ncnc32)O[C@@H]1COP(=O)(O)O[C@H]1C[C@H](n2ccc(N)nc2=O)O[C@@H]1COP(=O)(O)O [pdCpA-MeCys(StBu), (2R)-(2R,3S,4R,5R)-2-((((((2R,3S,5R)-5-(4-amino-2-oxopyrimidin-1(2H)-yl)-2-((phosphonooxy)methyl)tetrahydrofuran-3-yl)oxy)(hydroxy)phosphoryl)oxy)methyl)-5-(6-amino-9H-purin-9-yl)-4-hydroxytetrahydrofuran-3-yl 3-(tert-butyldisulfanyl)-2-(methylamino)propanoate] | – | – | – | – | – | – | – | – | – | – | – | – | – | – | – | – | % remaining by LC-MS [1, 12]: 100%; % remaining by LC-MS [1, 13]: 100%; % remaining by LC-MS [1, 14]: 49%; % remaining by LC-MS [1, 15]: 35%
